# Experimental data taken from patent US7094803B2, “Biologically active raspailamide compounds” (Harbor Branch Oceanographic Institution, Inc., priority 2003, dated 2006).
# Test system: A549 human lung adenocarcinoma
# Experiment: Antiproliferative MTT assay, A549 human lung adenocarcinoma cell line
# Assay type: cell-based
# Conditions: A549 adherent cells, 72-h exposure, cytotoxicity
# Description: Raspailamide A (I) and B (II) were analyzed as to their effect on the proliferation of A549 human lung adenocarcinoma and P388 murine leukemia cell lines. P388 cells were obtained from Dr. R. Camalier, National Cancer Institute, Bethesda, Md., and A549 cells were obtained from American Type Culture Collection, Rockville, Md.
# All cell lines are maintained in Roswell Park Memorial Institute (RPMI) medium 1640 supplemented with 100 U/mL penicillin 100 μg/ml streptomycin, 60 μg/ml L-glutamine, 18 mM HEPES, 0.05 mg/mL gentamycin and 10% fetal bovine serum. Cell lines are cultured in plastic tissue culture flasks and kept in an incubator at 37° C. in humidified air containing 5% CO2. […]
# A volume of 75 μl of warm growth media containing 5 mg/ml MTT is added to each well, cultures returned to the incubator, and left undisturbed for 3 hours. To spectrophotometrically quantitate formation of reduced formazan, plates are centrifuged (900×g, 5 minutes), culture fluids removed by aspiration, and 200 μl of acidified isopropanol (2 ml concentrated HCl/iter isopropanol) added per well. The absorbance of the resulting solutions is measured at 570 nm with a plate reader (Spectra II (Tecan Laboratories). […]
# The two standard drug controls (indicated above) are included in each assay to monitor the drug sensitivity of each of the cell lines and IC50 values are determined for each drug-cell combination.
row,SMILES,IC50
1,"C=C(OC)C(=O)NCC(O)CC(C/C=C(C)/C=C/C(C)CC1OC(CC2CC(OC)CC(C(C)/C=C(C)/C=C/C=C/C)O2)C(C)CC1(C)O)OC(N)=O (centres unmarked) [Raspailamide A (I), Raspailamide A]",0.046 ng/mL
2,"C=C/C=C/C(C)=C/C(C)C1CC(OC)CC(CC2OC(CC(C)/C=C/C(C)=C/CC(CC(O)CNC(=O)C(=C)OC)OC(N)=O)C(C)(O)CC2C)O1 (centres unmarked) [Raspailamide (II), Raspailamide B]",0.018 ng/mL
